By melting point is commonly meant the temperature, or range, at which the solid turns liquid.

Where a name gives a salt, the structure may show the parent alone.

Turning to `COC(=O)CC(C(=O)OC)N1CCC(Nc2ncc3ncnc(Nc4cccc(Br)c4)c3n2)CC1` (stereo not shown) (as salt: maleate) [Example 6(4), 4-[(3-bromophenyl)amino]-6-({1-[1,2-bis(methoxycarbonyl)ethyl]piperidin-4-yl}amino)pyrimido[5,4-d]pyrimidine], the melting point came to 193 °C.
In turn, `O=C(O)CCN1CCC(Nc2ncc3ncnc(Nc4ccc(F)c(Cl)c4)c3n2)CC1` [Example 1(1), 4-[(3-chloro-4-fluorophenyl)amino]-6-{[1-(2-carboxyethyl)piperidin-4-yl]amino}pyrimido[5,4-d]pyrimidine] yielded a melting point of 217 to 225 °C.
The value for `O=C(O)CCCN1CCC(Nc2ncc3ncnc(Nc4ccc(F)c(Cl)c4)c3n2)CC1` [Example 1(2), 4-[(3-chloro-4-fluorophenyl)amino]-6-{[1-(3-carboxypropyl)piperidin-4-yl]amino}pyrimido[5,4-d]pyrimidine] was 145 to 165 °C.
For `CN(CCCC(=O)O)[C@H]1CC[C@H](Nc2ncc3ncnc(Nc4ccc(F)c(Cl)c4)c3n2)CC1` [Example 1(5), 4-[(3-chloro-4-fluorophenyl)amino]-6-({trans-4-[N-(3-carboxypropyl)-N-methylamino]cyclohex-1-yl}amino)pyrimido[5,4-d]pyrimidine], the melting point was in the range of 217 to 221 °C.
The compound `O=C(O)CCN1CCN(c2ncc3ncnc(Nc4ccc(F)c(Cl)c4)c3n2)CC1` [Example 1(7), 4-[(3-chloro-4-fluorophenyl)amino]-6-[4-(2-carboxyethyl)piperazin-1-yl]pyrimido[5,4-d]pyrimidine] had a melting point of 111 to 145 °C.
With `O=C(O)CN1CCN(CCNc2ncc3ncnc(Nc4ccc(F)c(Cl)c4)c3n2)CC1` [Example 1(13), 4-[(3-chloro-4-fluorophenyl)amino]-6-{2-[4-(carboxymethyl)piperazin-1-yl]ethylamino}pyrimido[5,4-d]pyrimidine], the melting point is 240 to 242 °C (dec.).
The compound `NC1(C(=O)O)CCN(c2ncc3ncnc(Nc4ccc(F)c(Cl)c4)c3n2)CC1` [Example 1(14), 4-[(3-chloro-4-fluorophenyl)amino]-6-(4-amino-4-carboxypiperidin-1-yl)pyrimido[5,4-d]pyrimidine] showed a melting point of 277 to 282 °C.
Compound `O=C(O)CCNCC1CCN(c2ncc3ncnc(Nc4ccc(F)c(Cl)c4)c3n2)CC1` [Example 1(16), 4-[(3-chloro-4-fluorophenyl)amino]-6-(4-{[(2-carboxyethyl)amino]methyl}piperidin1-yl)pyrimido[5,4-d]pyrimidine] yielded a melting point of 209 to 214 °C.
`O=C(O)CNCC1CCN(c2ncc3ncnc(Nc4ccc(F)c(Cl)c4)c3n2)CC1` [Example 1(17), 4-[(3-chloro-4-fluorophenyl)amino]-6-(4-{[(carboxymethyl)amino]methyl}piperidin-1-yl)pyrimido[5,4-d]pyrimidine] returned a melting point of 226 to 235 °C.
Consider `O=C(O)CN(CC(=O)O)[C@H]1CC[C@H](Nc2ncc3ncnc(Nc4ccc(F)c(Cl)c4)c3n2)CC1` [Example 1(18), 4-[(3-chloro-4-fluorophenyl)amino]-6-({trans-4-[N,N-bis(carboxymethyl)amino]cyclohex-1-yl}amino)pyrimido[5,4-d]pyrimidine], for which the melting point is 245 °C (dec.).
With `O=C(O)CCN(CCC(=O)O)CC1CCN(c2ncc3ncnc(Nc4ccc(F)c(Cl)c4)c3n2)CC1` [Example 1(19), 4-[(3-chloro-4-fluorophenyl)amino]-6-(4-{[N,N-bis(2-carboxyethyl)amino]methyl}piperidin-1-yl)pyrimido[5,4-d]pyrimidine] the figure was 160 to 169 °C; with `O=C(O)CN[C@H]1CC[C@H](Nc2ncc3ncnc(Nc4ccc(F)c(Cl)c4)c3n2)CC1` [Example 1(27), 4-[(3-chloro-4-fluorophenyl)amino]-6-({trans-4-[(carboxymethyl)amino]cyclohex-1-yl}amino)pyrimido [5,4-d]pyrimidine], 201 to 205 °C (dec.); with `CC1(NCCC(=O)O)CCN(c2ncc3ncnc(Nc4ccc(F)c(Cl)c4)c3n2)CC1` [Example 1(30), 4-[(3-chloro-4-fluorophenyl)amino]-6-{4-methyl-4-[(2-carboxyethyl)amino]piperidin-1-yl}pyrimido[5,4-d]pyrimidine], 157 to 160 °C.
Turning to `CC1(NCC(=O)O)CCN(c2ncc3ncnc(Nc4ccc(F)c(Cl)c4)c3n2)CC1` [Example 1(32), 4-[(3-chloro-4-fluorophenyl)amino]-6-{4-methyl-4-[(carboxymethyl)amino]piperidin-1-yl}pyrimido[5,4-d]pyrimidine], the melting point was 160 °C (dec.).
On to `CCCOC(=O)CN1CCC(Nc2ncc3ncnc(Nc4ccc(F)c(Cl)c4)c3n2)CC1` [Example 2(2), 4-[(3-chloro-4-fluorophenyl)amino]-6-({1-[(propyloxycarbonyl)methyl]piperidin-4-yl}amino)pyrimido[5,4-d]pyrimidine], for which the melting point fell in the range of 135 to 137 °C.
The value for `CC(C)OC(=O)CN1CCC(Nc2ncc3ncnc(Nc4ccc(F)c(Cl)c4)c3n2)CC1` [Example 2(3), 4-[(3-chloro-4-fluorophenyl)amino]-6-({1-[(isopropyloxycarbonyl)methyl]piperidin-4-yl}amino)pyrimido[5,4-d]pyrimidine] was 175 to 177 °C.
`O=C(CN1CCC(Nc2ncc3ncnc(Nc4ccc(F)c(Cl)c4)c3n2)CC1)OC1CCCCC1` [Example 2(4), 4-[(3-chloro-4-fluorophenyl)amino]-6-({1-[(cyclohexyloxycarbonyl)methyl]piperidin-4-yl}amino)pyrimido[5,4-d]pyrimidine] gave a melting point of 184 to 186 °C.
The value for `COC(=O)CCN1CCC(Nc2ncc3ncnc(Nc4ccc(F)c(Cl)c4)c3n2)CC1` [Example 2(5), 4-[(3-chloro-4-fluorophenyl)amino]-6-({1-[2-(methoxycarbonyl)ethyl]piperidin-4-yl}amino)pyrimido[5,4-d]pyrimidine] was 136 to 137 °C; that for `COC(=O)CCCN1CCC(Nc2ncc3ncnc(Nc4ccc(F)c(Cl)c4)c3n2)CC1` [Example 2(6), 4-[(3-chloro-4-fluorophenyl)amino]-6-({1-[3-(methoxycarbonyl)propyl]piperidin-4-yl}amino)pyrimido[5,4-d]pyrimidine] was 135 to 137 °C.
With `COC(=O)CCN(C)[C@H]1CC[C@H](Nc2ncc3ncnc(Nc4ccc(F)c(Cl)c4)c3n2)CC1` [Example 2(8), 4-[(3-chloro-4-fluorophenyl)amino]-6-[(trans-4-{N-[2-(methoxycarbonyl)ethyl]-N-methylamino}cyclohex-1-yl)amino]pyrimido[5,4-d]pyrimidine] the figure was 126 to 128 °C; with `COC(=O)CCCN(C)[C@H]1CC[C@H](Nc2ncc3ncnc(Nc4ccc(F)c(Cl)c4)c3n2)CC1` [Example 2(9), 4-[(3-chloro-4-fluorophenyl)amino]-6-[(trans-4-{N-[3-(methoxycarbonyl)propyl]-N-methylamino}cyclohex-1-yl)amino]pyrimido[5,4-d]pyrimidine], 99 to 102 °C.
The value for `COC(=O)CCN1CCN(c2ncc3ncnc(Nc4ccc(F)c(Cl)c4)c3n2)CC1` [Example 2(11), 4-[(3-chloro-4-fluorophenyl)amino]-6-[4-[2-(methoxycarbonyl)ethyl]piperazin-1-yl]pyrimido[5,4-d]pyrimidine] was 140 to 142 °C; that for `COC(=O)CCC1CCN(C2CCN(c3ncc4ncnc(Nc5ccc(F)c(Cl)c5)c4n3)C2)CC1` (stereo not shown) [Example 2(16), 4-[(3-chloro-4-fluorophenyl)amino]-6-(3-{4-[2-(methoxycarbonyl)ethyl]piperidin-1-yl}-pyrrolidin-1-yl)pyrimido[5,4-d]pyrimidine] was 166 to 168 °C.
`COC(=O)C1CCCN1CC1CCN(c2ncc3ncnc(Nc4ccc(F)c(Cl)c4)c3n2)CC1` (stereo not shown) [Example 2(21), 4-[(3-chloro-4-fluorophenyl)amino]-6-(4-{[2-(methoxycarbonyl)pyrrolidin 1-yl]methyl}piperidin-1-yl)pyrimido[5,4-d]pyrimidine] came in with a melting point of 151 to 154 °C.
On to `CCOC(=O)CN1CCN(CC2CCN(c3ncc4ncnc(Nc5ccc(F)c(Cl)c5)c4n3)CC2)CC1` [Example 2(22), 4-[(3-chloro-4-fluorophenyl)amino]-6-[4-({4-[(ethoxycarbonyl)methyl]piperazin-1-yl}methyl)piperidin-1-yl]pyrimido[5,4-d]pyrimidine], for which the melting point lay in the range of 145 to 149 °C.
With `CCOC(=O)CN1CCC(Nc2ncc3ncnc(Nc4ccc(F)c(Cl)c4)c3n2)CC1` [Example 2, 4-[(3-chloro-4-fluorophenyl)amino]-6-({1-[(ethoxycarbonyl)methyl]piperidin-4-yl}amino)pyrimido[5,4-d]pyrimidine] the figure was 136 to 138 °C; with `COC(=O)CCNC1(C)CCN(c2ncc3ncnc(Nc4ccc(F)c(Cl)c4)c3n2)CC1` [Example 6(3), 4-[(3-chloro-4-fluorophenyl)amino]-6-{4-methyl-4-[2-(methoxycarbonyl)ethyl]aminopiperidin-1-yl}pyrimido[5,4-d]pyrimidine], 134 to 135 °C.
With `CCOC(=O)CC(CC(=O)OCC)N1CCC(Nc2ncc3ncnc(Nc4cccc(Br)c4)c3n2)CC1` [Example 6(5), 4-[(3-bromophenyl)amino]-6-[(1-{1-[(ethoxycarbonyl)methyl]-2-(ethoxycarbonyl)ethyl}piperidin-4-yl)amino]pyrimido-[5,4-d]pyrimidine] the figure was 132 °C.

Source of the values: patent US20020082420A1, “Bicyclic heterocycles, pharmaceutical compositions containing them, their use, and processes for preparing them” (priority 2000, published 2002).
